Assay results reported in patent US20150283110A1, “COMPOSITION FOR PREVENTING OR TREATING HEART DISEASE” (AMOREPACIFIC CORPORATION, priority 2012, published 2015).

Assays:
SIRT1 gene [1] = assay: SIRT1 gene expression promoting effect in cardiomyocytes (RT-PCR); type: cell-based; design: change of the expression of the SIRT1 gene: dose or concentration left out as unconfirmed; conditions: rat cardiomyocytes, FIG. 1; for change of the expression of the SIRT1 gene: serum-free, 24 hours, DMSO control
Experimental: The SIRT1 gene expression promoting effect of the two optical isomers of syringaresinol in rat cardiomyocytes was evaluated as follows.
The heart of a 1-2 day old Sprague-Dawley rat was excised, immersed in an HBSS solution, cut into pieces with scissors and kept overnight in a trypsin/EDTA solution inside a shaker at 4° C. The next day, the trypsin solution was discarded and a 10% FCS/DMEM solution was added to inhibit trypsin activity. After discarding the FCS/DMEM, adding a collagenase solution and keeping in a shaking bath at 37° C. for about 3 minutes, only the supernatant was collected in a conical tube. This procedure was repeated three times. After centrifuging the collected solution at 750 rpm for 5 minutes, the resulting pellets were resuspended in a 10% FCS/DMEM solution, transferred to a culture flask and then incubated at 37° C. for 75 minutes. The suspension was transferred to a fresh culture flask, incubated again for 75 minutes, transferred to a conical tube and then plated after cell counting. The plated cells were cultured in a 10% FCS/DMEM medium for 3-4 days until confluence and the medium was treated respectively with the (+)-syringaresinol (50 mM) obtained in Example and with the (−)-syringaresinol (50 mM) obtained in Comparative Example for 24 hours after removing the serum. The control group was treated with DMSO. The treated cells were washed 2 times with cold PBS and RNA was extracted therefrom using the TRIzol reagent (Invitrogen). cDNA was synthesized from the extracted and quantitated 1 μg/μL RNA using a reverse transcription system (Promega). The expression profile of the SIRT1 and GAPDH genes was measured using the synthesized cDNA and primers and probes predesigned for the genes (Applied Biosystems; SIRT1, Hs01009006_m1; GAPDH, Hs99999905_m1). PCR reaction and analysis were conducted using the Rotor-Gene 3000 system (Corbett Research, Sydney, Australia).

cardiomyocytes = assay: Cardiomyocyte protection from cell death induced by reactive oxygen species (H2O2, MTT); type: cell-based, rat; conditions: 250 mM H2O2 2 hours, then 5, 20 or 50 mM for 24 hours; MTT OD 540 nm; FIGS. 2 and 3
Experimental: Cardiomyocytes isolated and cultured according to the substantially same method as described in Test Example 1 were treated with 250 mM hydrogen peroxide (H2O2) for 2 hours in a serum-free medium to induce cell death by reactive oxygen species. 2 hours later, after removing the medium and washing with PBS, the cells were treated with 5, 20 or 50 mM (+)-syringaresinol and (−)-syringaresinol for 24 hours. After adding a 3-[4,5-dimethylthiazolyl]-2,5-diphenyltetrazolium bromide (MTT, Sigma) solution to the cells and incubating at 37° C. for 4 hours, dimethyl sulfoxide was added and the optical density (OD) of the formed formazan dye was measured at a wavelength of 540 nm using an ELISA reader (Thermo Max, Molecular Devices Co.).

SIRT1 gene [2] = assay: SIRT1 expression in vascular endothelial cells during induced aging (RT-PCR); type: cell-based; conditions: human vascular endothelial cells, 50 mM every other day, FIG. 8
Experimental: Human vascular endothelial cells purchased from Lonza (Walkersville, Md., USA) were cultured using the endothelial cell growth medium EGM-2 SingleQuots (Lonza) in a 5% CO2 incubator until 70% confluence. […] The population doubling level (PDL) was calculated according to the following equation for each generation until the cell growth was stopped. The PDL value is higher in aged cells.
14 PDL cells were treated with syringaresinol obtained from ginseng berry [syn(GB)], synthesized (+)-syringaresinol [syn(+)], 1:1 [syn(+/−1:1)], 2:1 [syn(+/−2:1)], 5:1 [syn(syn(+/−5:1))] or 10:1 [syn(syn(+/−10:1))] mixture of synthesized (+)-syringaresinol and synthesized (−)-syringaresinol or syringaresinol obtained from eleuthero [syn(eleuthero)] at a concentration of 50 mM every other day while inducing aging to 40 PDL cells. The cells of a negative control group were treated with DMSO of 1/1000 of the volume of the medium. The cells treated with each sample were washed 2 times with cold PBS and RNA was extracted using the TRIzol reagent (Invitrogen). cDNA was synthesized from the extracted RNA (1 μg/μL) using a reverse transcription system (Promega). Subsequently, the expression profile of the SIRT1 and GAPDH genes was measured using the synthesized cDNA and primers and probes predesigned for the genes (Applied Biosystems; SIRT1, Hs01009006_m1; GAPDH, Hs99999905_m1). […]

Row | Compound | change of the expression of the SIRT1 gene (SIRT1 gene [1]) | death of cardiomyocytes induced by reactive oxygen species (cardiomyocytes) | effect of increasing the SIRT1 expression compared with syringaresinol obtained from ginseng berry (SIRT1 gene [1]) | SIRT1 expression compared with cells treated with syringaresinol obtained from ginseng berry (SIRT1 gene [2]) | SIRT1 expression as compared to the cells treated only with DMSO (SIRT1 gene [2]; 14 PDL to 40 PDL)
1 | COc1cc(C2OCC3C(c4cc(OC)c(O)c(OC)c4)OCC23)cc(OC)c1O (centres unmarked) [syringaresinol obtained from ginseng berry] | increase the SIRT1 expression in cardiomyocyte in concentration-dependent manners |  |  |  | 
2 | COc1cc(C2OCC3C(c4cc(OC)c(O)c(OC)c4)OCC23)cc(OC)c1O (single isomer, unassigned; (-)) [(−)-syringaresinol, reference compound] | cannot increase the expression of the SIRT1 gene | promoted cell death |  |  | 
3 | COc1cc([C@H]2OC[C@H]3[C@@H]2CO[C@@H]3c2cc(OC)c(O)c(OC)c2)cc(OC)c1O [(+)-syringaresinol, (8R,8′R)-(+)-syringaresinol] | increase the SIRT1 expression in cardiomyocyte in concentration-dependent manners | suppressed the death of the cardiomyocytes induced by the reactive oxygen species in a concentration-dependent manner | better effect of increasing the SIRT1 expression than the syringaresinol obtained from ginseng berry | higher SIRT1 expression than the cells treated with the syringaresinol obtained from ginseng berry | ≥ 4 times
